# Experimental data reported in the supplement of paper PMC10307832.
# Legend:
# Assay in all cases: relative viability (nuclei count vs DMSO), 5 days (fraction); higher = more cells survive
# RU-SKI 43 + Bortezomib = compound: CC[C@@H](C)CNCC(=O)N1CCC2=C([C@@H]1COC3=CC=CC(=C3)C)C=CS2 [RU-SKI 43] + CC(C)C[C@H](NC(=O)[C@H](Cc1ccccc1)NC(=O)c1cnccn1)B(O)O [Bortezomib] (partner 0.002 µM)
# In short: (§1)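 Relative viability is defined as nuclei in treated wells over nuclei in vehicle wells. Duplicate plates were run and medians reported. Lung cancer cell lines in 1536-well plates were dosed by pin tool one day after seeding, with one drug or with a fixed anchor-drug dose plus five library-drug doses (not always all listed) in √10 steps, and nuclei were counted after 5 days.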
# RU-SKI 43 + Tozasertib = compound: CC[C@@H](C)CNCC(=O)N1CCC2=C([C@@H]1COC3=CC=CC(=C3)C)C=CS2 [RU-SKI 43] + Cc1cc(Nc2cc(N3CCN(C)CC3)nc(Sc3ccc(NC(=O)C4CC4)cc3)n2)n[nH]1 [Tozasertib] (partner 0.1 µM)
# In short: as §1
# Irinotecan + Phenformin = compound: CCc1c2c(nc3ccc(OC(=O)N4CCC(N5CCCCC5)CC4)cc13)-c1cc3c(c(=O)n1C2)COC(=O)[C@]3(O)CC [Irinotecan] + N=C(N)NC(=N)NCCc1ccccc1 [Phenformin] (partner 250 µM)
# In short: as §1
# Irinotecan + Decitabine = compound: CCc1c2c(nc3ccc(OC(=O)N4CCC(N5CCCCC5)CC4)cc13)-c1cc3c(c(=O)n1C2)COC(=O)[C@]3(O)CC [Irinotecan] + Nc1ncn([C@H]2C[C@H](O)[C@@H](CO)O2)c(=O)n1 [Decitabine] (partner 2 µM)
# In short: as §1
Cell Line,relative viability (RU-SKI 43 + Bortezomib; first compound 0.1 µM),relative viability (RU-SKI 43 + Bortezomib; first compound 0.3162 µM),relative viability (RU-SKI 43 + Bortezomib; first compound 1 µM),relative viability (RU-SKI 43 + Bortezomib; first compound 3.162 µM),relative viability (RU-SKI 43 + Bortezomib; first compound 10 µM),relative viability (RU-SKI 43 + Tozasertib; first compound 0.1 µM),relative viability (RU-SKI 43 + Tozasertib; first compound 0.3162 µM),relative viability (RU-SKI 43 + Tozasertib; first compound 1 µM),relative viability (RU-SKI 43 + Tozasertib; first compound 3.162 µM),relative viability (RU-SKI 43 + Tozasertib; first compound 10 µM),relative viability (Irinotecan + Phenformin; first compound 2 µM),relative viability (Irinotecan + Phenformin; first compound 6.325 µM),relative viability (Irinotecan + Phenformin; first compound 20 µM),relative viability (Irinotecan + Decitabine; first compound 0.6325 µM),relative viability (Irinotecan + Decitabine; first compound 2 µM),relative viability (Irinotecan + Decitabine; first compound 6.325 µM),relative viability (Irinotecan + Decitabine; first compound 20 µM),relative viability (Irinotecan + Phenformin; first compound 0.6325 µM)
201T,1.09,1.09,1.17,1.12,1.07,0.883,1.03,0.883,0.931,0.812,0.489,0.361,0.333,0.714,0.615,0.295,0.298,–
A549,–,–,–,–,–,–,–,–,–,–,0.198,0.113,0.0897,–,0.26,0.197,0.0737,–
A-427,1.05,0.95,1.05,–,0.896,0.226,0.165,0.23,0.21,0.196,0.21,0.173,0.184,0.566,0.573,0.347,0.198,–
ABC-1,0.286,0.351,0.35,0.285,0.312,0.16,0.172,0.18,0.166,0.185,0.292,0.229,0.0948,–,0.851,0.515,0.475,–
BEN,0.815,0.819,1.24,0.769,0.665,0.502,0.426,0.546,0.495,0.509,0.247,0.24,0.272,0.503,0.793,0.493,0.504,0.242
CAL-12T,0.967,1,1.3,0.961,0.964,0.296,0.403,0.303,0.26,0.243,0.668,0.275,0.186,–,–,–,–,–
COR-L23,1.18,0.714,1.12,1.14,1.03,0.18,0.179,0.188,0.164,0.176,0.394,0.188,0.108,0.314,0.336,0.192,0.104,0.31
COR-L 105,0.893,0.726,0.83,0.963,0.616,0.317,0.252,0.32,0.339,0.332,0.682,0.41,0.182,0.605,0.586,0.555,0.364,0.505
Calu-6,1.1,0.966,1.04,1.1,0.974,–,–,–,–,–,–,–,–,–,–,–,–,–
ChaGo-K-1,1.39,1.14,1.29,0.84,0.939,0.234,0.203,0.221,0.22,0.231,0.352,0.191,0.218,0.344,0.251,0.233,0.239,0.413
EBC-1,0.469,0.428,0.652,0.451,0.382,–,–,–,–,–,–,–,–,–,–,–,–,–
EKVX,1.09,1.24,1.2,0.958,0.585,0.354,0.379,0.374,0.372,0.31,0.185,0.224,0.151,–,0.27,0.262,0.229,0.216
EMC-BAC-2,1.14,1.13,1.11,1.11,1.04,0.295,0.235,0.262,0.296,0.249,0.399,0.271,0.276,0.933,0.719,0.432,0.277,0.336
EPLC-272H,0.905,1.08,1.09,–,1.09,0.213,0.226,0.445,0.242,0.207,0.244,0.241,0.294,–,0.33,0.223,0.151,0.25
H3255,0.906,0.751,1.23,0.652,0.754,0.721,0.726,0.292,0.76,0.489,0.337,0.344,0.331,–,0.456,0.266,0.225,0.343
HARA,1.22,1.19,1.13,1.18,1.14,0.125,0.0842,0.118,0.111,0.108,0.157,0.11,0.113,0.481,0.318,0.284,0.283,0.351
HCC-15,1.12,1.28,1.2,1.08,1.11,0.43,0.327,0.27,0.252,0.219,0.331,0.183,0.12,0.363,0.45,0.381,0.14,–
HCC-44,0.918,0.864,1,0.849,0.852,0.962,–,0.903,1.02,0.87,0.251,0.147,0.211,0.87,0.913,0.677,0.512,–
HCC-78,0.505,0.495,0.484,0.471,0.427,0.395,0.569,0.432,0.406,0.318,0.546,0.257,0.229,0.607,0.479,0.335,0.328,0.733
HCC-366,1.11,1.39,1.24,1.24,1.07,0.098,0.0997,0.124,0.132,0.0872,0.371,0.0734,0.078,0.341,0.212,0.104,0.0739,0.495
HCC-827,0.989,1.07,1.18,1.11,1.02,0.435,0.523,0.592,0.426,0.368,0.349,0.159,0.209,0.337,0.326,0.174,0.221,0.345
HOP-62,0.728,0.561,1.01,0.731,0.765,0.359,0.371,0.479,0.344,0.287,0.532,0.267,0.204,0.22,0.198,0.187,0.212,0.443
IA-LM,0.798,0.759,1.12,0.912,0.745,–,–,–,–,–,–,–,–,–,–,–,–,–

Cell Line,relative viability (RU-SKI 43 + Bortezomib; first compound 0.1 µM),relative viability (RU-SKI 43 + Bortezomib; first compound 0.3162 µM),relative viability (RU-SKI 43 + Bortezomib; first compound 1 µM),relative viability (RU-SKI 43 + Bortezomib; first compound 3.162 µM),relative viability (RU-SKI 43 + Bortezomib; first compound 10 µM),relative viability (RU-SKI 43 + Tozasertib; first compound 0.1 µM),relative viability (RU-SKI 43 + Tozasertib; first compound 0.3162 µM),relative viability (RU-SKI 43 + Tozasertib; first compound 1 µM),relative viability (RU-SKI 43 + Tozasertib; first compound 3.162 µM),relative viability (RU-SKI 43 + Tozasertib; first compound 10 µM),relative viability (Irinotecan + Phenformin; first compound 2 µM),relative viability (Irinotecan + Phenformin; first compound 6.325 µM),relative viability (Irinotecan + Phenformin; first compound 20 µM),relative viability (Irinotecan + Decitabine; first compound 0.6325 µM),relative viability (Irinotecan + Decitabine; first compound 2 µM),relative viability (Irinotecan + Decitabine; first compound 6.325 µM),relative viability (Irinotecan + Decitabine; first compound 20 µM),relative viability (Irinotecan + Phenformin; first compound 0.6325 µM)
LC-2-ad,1.03,1.21,1.06,1.1,0.867,0.424,0.442,0.459,0.424,0.405,0.529,0.324,0.197,0.532,0.355,0.338,0.262,0.444
LCLC-97TM1,0.852,0.827,1.79,0.684,0.645,0.26,0.22,0.207,0.21,0.231,0.205,0.127,0.115,0.135,0.107,0.105,0.115,0.322
LCLC-103H,0.969,1.09,1.31,1.1,0.985,0.411,0.445,0.498,0.501,0.373,0.358,0.256,0.321,0.63,0.524,0.458,0.432,0.344
LK-2,–,–,–,–,–,0.186,0.156,0.165,0.181,0.171,0.63,0.315,0.307,0.285,0.379,0.226,0.216,0.419
LOU-NH91,0.53,0.485,0.519,0.502,0.497,0.659,0.646,0.672,0.702,0.6,0.639,0.377,0.391,0.79,0.768,0.492,0.311,0.617
LU99A,1.08,1.3,1.15,1.23,1.03,0.255,0.234,0.279,0.202,0.227,0.37,0.208,0.301,0.196,0.184,0.157,0.169,0.369
NCI-H358,–,–,–,–,–,0.109,0.106,0.0941,0.103,0.0859,0.278,0.125,0.0851,0.183,0.193,0.154,0.0968,0.273
NCI-H522,–,–,–,–,–,0.566,0.544,0.581,0.537,0.524,0.567,0.514,0.564,0.605,0.492,0.577,0.636,0.578
NCI-H1299,0.985,1.04,1.06,1.05,1.02,–,–,–,–,–,–,–,–,–,–,–,–,–
NCI-H1395,–,–,–,–,–,0.866,0.694,0.774,0.789,0.692,0.493,0.389,0.399,–,0.722,0.522,0.301,0.403
NCI-H1563,0.882,0.828,0.888,0.797,0.797,–,–,–,–,–,0.691,0.608,0.38,–,–,–,–,0.634
NCI-H1623,–,–,–,–,–,0.447,0.42,0.71,0.386,0.399,0.696,0.233,0.219,–,–,–,–,0.548
NCI-H1648,–,–,–,–,–,–,–,0.428,0.484,0.4,–,–,–,0.501,0.469,0.446,0.428,–
NCI-H1703,0.345,0.227,0.371,0.282,0.227,–,–,–,–,–,–,–,–,–,–,–,–,–
NCI-H1792,0.961,1.29,1.31,1.03,0.941,–,–,–,–,–,0.424,0.314,0.28,0.405,0.522,0.287,0.228,0.273
NCI-H1793,–,–,–,–,–,0.333,0.321,0.344,0.324,0.281,0.347,0.263,0.185,–,0.315,0.262,0.258,–
NCI-H1944,–,–,–,–,–,0.251,0.27,0.257,0.251,0.23,0.187,0.132,0.132,0.323,0.206,0.149,0.151,0.191
NCI-H2170,–,–,–,–,–,0.701,0.953,0.751,0.722,0.701,0.424,0.202,0.174,0.396,0.222,0.128,0.122,0.389
NCI-H2228,1.19,1.26,0.937,1.98,0.941,0.256,0.264,0.184,0.249,0.255,0.347,0.336,0.27,–,–,–,–,0.311
NCI-H2342,–,–,–,–,–,0.489,0.528,0.502,0.441,0.516,0.59,0.554,0.418,0.732,0.789,0.68,0.436,0.614
SK-MES-1,–,–,–,–,–,0.9,1.14,1.04,0.924,0.754,0.51,0.264,0.191,0.398,0.483,0.282,0.143,0.582
SW 900,–,–,–,–,–,0.671,0.553,0.54,0.45,0.512,0.664,0.447,0.37,–,0.4,0.354,0.367,0.425
